Experimental data reported in patent US11896646B2, “Formulated and/or co-formulated liposome compositions containing toll-like receptor (“TLR”) agonist prodrugs useful in the treatment of cancer and methods thereof” (Nammi Therapeutics, Inc., priority 2020, dated 2024).

What was measured:
TLRs in RAW-Blue cells = assay: RAW-Blue SEAP reporter / QUANTI-Blue assay (Example 20); type: cell-based, mouse; settings: 24 hr incubation, different concentration
Procedure: In another experiment, in vitro biological activity of LNP-TR3 and to further confirm targeting of TLR7 and not targeting TLR8, the following experiment(s) were performed using a RAW-Blue™ (NF-κB/AP-1 inducible secreted embryonic alkaline phosphatase (SEAP) reporter gene) Cells and QUANTI-Blue™ (alkaline phosphatase assay), HEK-Blue™ (HEK 293 cell line expressing a TLR gene and an NF-κB/AP-1 inducible secreted embryonic alkaline phosphatase (SEAP) reporter gene), and hTLR8 cell line assay (InvivoGen, San Diego, CA). Briefly, despite Raw Blue™ (NF-κB/AP-1 inducible secreted embryonic alkaline phosphatase (SEAP) reporter gene) cells that express a variety of human Toll Like Receptors (TLRs) (including TLR7/8 but with the exception of TLR5) hTLR8 cells dominantly express the human TLR8. […] Stimulation of these cells with TR3 lead to NF-κB activation through TLR8 which is measured by detection of SEAP levels.
RAW-Blue™ (NF-κB/AP-1 inducible secreted embryonic alkaline phosphatase (SEAP) reporter gene) Cells were incubated with TR5, LNP-TR5, TR3, TR3+Stearic Acid, and LNP-TR3 at different concentration. After twenty-four (24) hr. incubation with the compounds, TLR stimulation was assessed by measuring the levels of SEAP optimal density (OD) using a QUANTI-Blue™ (alkaline phosphatase assay) assay. […]

human TLR8 = target: T1, human TLR8 (Homo sapiens, UniProt Q9NR97); assay: HEK-Blue TLR8 SEAP reporter / QUANTI-Blue assay (Example 20); type: cell-based; settings: HEK-Blue TLR8 cells, 24 hr incubation, different concentration
T1 construct: host or cells: HEK-Blue hTLR8 (HEK 293)
T1 sequence (Q9NR97 27-1041): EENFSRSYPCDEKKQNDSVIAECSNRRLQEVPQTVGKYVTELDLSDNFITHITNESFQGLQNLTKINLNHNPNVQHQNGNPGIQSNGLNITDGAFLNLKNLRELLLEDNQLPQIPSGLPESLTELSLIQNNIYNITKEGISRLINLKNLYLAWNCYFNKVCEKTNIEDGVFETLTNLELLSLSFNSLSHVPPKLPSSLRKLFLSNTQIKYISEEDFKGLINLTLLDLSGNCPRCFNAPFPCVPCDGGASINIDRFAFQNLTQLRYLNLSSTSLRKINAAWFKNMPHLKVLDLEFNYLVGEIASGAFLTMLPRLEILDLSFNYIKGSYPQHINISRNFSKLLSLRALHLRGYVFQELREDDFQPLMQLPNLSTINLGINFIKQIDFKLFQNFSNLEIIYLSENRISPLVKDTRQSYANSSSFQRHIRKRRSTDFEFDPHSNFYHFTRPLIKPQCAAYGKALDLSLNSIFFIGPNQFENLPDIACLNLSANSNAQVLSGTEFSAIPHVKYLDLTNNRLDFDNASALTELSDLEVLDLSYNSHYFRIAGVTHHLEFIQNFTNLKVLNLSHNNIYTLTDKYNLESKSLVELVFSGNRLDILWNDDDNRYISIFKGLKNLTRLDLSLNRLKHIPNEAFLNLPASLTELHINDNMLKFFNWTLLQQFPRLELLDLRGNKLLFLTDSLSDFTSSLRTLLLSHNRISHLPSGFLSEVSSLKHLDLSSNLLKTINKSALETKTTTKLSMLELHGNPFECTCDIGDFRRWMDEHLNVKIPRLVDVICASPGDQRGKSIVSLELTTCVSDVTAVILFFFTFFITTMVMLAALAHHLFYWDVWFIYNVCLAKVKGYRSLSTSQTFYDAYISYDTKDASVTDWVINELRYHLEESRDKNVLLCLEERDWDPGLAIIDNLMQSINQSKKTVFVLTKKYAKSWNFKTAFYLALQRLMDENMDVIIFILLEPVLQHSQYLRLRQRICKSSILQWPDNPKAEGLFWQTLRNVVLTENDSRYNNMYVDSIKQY
Procedure: In another experiment, in vitro biological activity of LNP-TR3 and to further confirm targeting of TLR7 and not targeting TLR8, the following experiment(s) were performed using a RAW-Blue™ (NF-κB/AP-1 inducible secreted embryonic alkaline phosphatase (SEAP) reporter gene) Cells and QUANTI-Blue™ (alkaline phosphatase assay), HEK-Blue™ (HEK 293 cell line expressing a TLR gene and an NF-κB/AP-1 inducible secreted embryonic alkaline phosphatase (SEAP) reporter gene), and hTLR8 cell line assay (InvivoGen, San Diego, CA). Briefly, despite Raw Blue™ (NF-κB/AP-1 inducible secreted embryonic alkaline phosphatase (SEAP) reporter gene) cells that express a variety of human Toll Like Receptors (TLRs) (including TLR7/8 but with the exception of TLR5) hTLR8 cells dominantly express the human TLR8. Additionally, an NE κB/AP-1-inducible SEAP (secreted embryonic alkaline phosphatase) reporter gene were used. Stimulation of these cells with TR3 lead to NF-κB activation through TLR8 which is measured by detection of SEAP levels.

TLR4 = target: T2, TLR4 (Mus musculus, UniProt Q9QUK6); assay: RAW-Blue SEAP reporter / QUANTI-Blue assay, TLR4 (Example 18); type: cell-based; settings: RAW-Blue cells, 24 hr incubation, different concentration
T2 construct: host or cells: RAW-Blue cells
T2 sequence (Q9QUK6 26-835): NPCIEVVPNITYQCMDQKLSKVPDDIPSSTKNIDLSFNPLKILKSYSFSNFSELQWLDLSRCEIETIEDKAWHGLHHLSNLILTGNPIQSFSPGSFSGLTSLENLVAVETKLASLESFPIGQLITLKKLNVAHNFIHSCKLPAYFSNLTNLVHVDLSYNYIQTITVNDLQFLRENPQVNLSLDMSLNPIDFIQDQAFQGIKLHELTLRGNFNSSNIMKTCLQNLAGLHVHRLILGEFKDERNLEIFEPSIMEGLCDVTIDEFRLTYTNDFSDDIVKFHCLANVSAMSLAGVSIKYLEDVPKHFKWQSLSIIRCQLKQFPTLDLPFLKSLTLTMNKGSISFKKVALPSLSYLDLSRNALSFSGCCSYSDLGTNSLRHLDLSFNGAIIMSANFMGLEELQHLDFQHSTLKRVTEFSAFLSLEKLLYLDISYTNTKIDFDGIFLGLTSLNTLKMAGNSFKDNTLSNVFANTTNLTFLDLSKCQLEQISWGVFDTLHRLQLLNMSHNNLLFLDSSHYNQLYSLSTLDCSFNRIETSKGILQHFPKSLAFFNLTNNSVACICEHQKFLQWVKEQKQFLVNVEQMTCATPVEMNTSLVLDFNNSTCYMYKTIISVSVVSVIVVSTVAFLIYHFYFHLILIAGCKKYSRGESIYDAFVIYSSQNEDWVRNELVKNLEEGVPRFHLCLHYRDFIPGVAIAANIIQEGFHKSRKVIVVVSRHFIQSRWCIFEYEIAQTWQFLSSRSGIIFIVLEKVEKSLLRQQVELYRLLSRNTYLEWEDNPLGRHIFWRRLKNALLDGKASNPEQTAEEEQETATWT
T2 sequence (Q9JHF9 19-160 partner): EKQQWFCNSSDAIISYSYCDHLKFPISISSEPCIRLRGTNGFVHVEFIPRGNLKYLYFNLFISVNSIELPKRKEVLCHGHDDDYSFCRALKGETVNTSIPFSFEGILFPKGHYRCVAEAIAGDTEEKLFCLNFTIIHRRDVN
Procedure: In another experiment, in vitro biological activity of LNP-TR8 and to further confirm targeting of TLR4, the following experiment(s) were performed using a RAW-Blue™ (NF-[…]/AP-1 inducible secreted embryonic alkaline phosphatase (SEAP) reporter gene) Cells and QUANTI-Blue™ (alkaline phosphatase assay) assay (InvivoGen, San Diego, CA). Briefly, Raw Blue™ (NF-κB/AP-1 inducible secreted embryonic alkaline phosphatase (SEAP) reporter gene) cells that express human Toll Like Receptors (TLRs) (with the exception of TLR5) and an NF-κB/AP-1-inducible SEAP (secreted embryonic alkaline phosphatase) reporter gene were used. Stimulation of these cells with TR8 lead to NF-κB activation through TLR4 which is measured by detection of SEAP levels. RAW-Blue™ (NF-κB/AP-1 inducible secreted embryonicalkaline phosphatase (SEAP) reporter gene) Cells were incubated with TR8 and LNP-TR8 at different concentration. After twenty-four (24) hr. incubation with the compounds, TLR stimulation was assessed by measuring the levels of SEAP optimal density (OD) using a QUANTI-Blue™ (alkaline phosphatase assay) assay. ODs were normalized to the control (untreated) group. […] (See, FIG. 26).

For CCCCCCCCCCCCCCCCCCS(=O)(=O)NCCCCn1c(CC)nc2c(N)nc3ccccc3c21 [TR3+Stearic Acid], the “TLR stimulation (SEAP OD normalized to untreated control)” value (TLRs in RAW-Blue cells) was “stimulated TLRs” and the “TLR stimulation (SEAP OD normalized to untreated control)” value (human TLR8) was “only TR5 in prodrug and liposome form were able to stimulate the cells”.

“Monophosphoryl Lipid A (Synthetic) [TR8]” was tested, and the “TLR stimulation (SEAP OD normalized to untreated control)” value (TLR4) was “could cause stimulation of TLR4”.
